In US20110086759A1, “CHEMICAL COMPOUNDS” (SYNGENTA CROP PROTECTION, INC., priority 2007, published 2011):

What was measured:
Assay type in all cases: in vivo
[1] = test system: Alopecurus myosuroides (ALOMY); assay: Pre-emergence biological efficacy, glasshouse pot test; conditions: 312 h, evaluated after 13 days (100=total damage; 0=no damage), read-out: Percentage damage ALOMY; for pest or weed control at 1000 g/ha: pre-emergence, 1,000 g/ha
In short: (§1)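 Test compound, formulated in acetone/water (50:50) containing 0.5% Tween 20 and diluted into an aqueous spray, was applied at 1000 or 250 g/ha to pots sown one day earlier. Injury was rated after 13 days, 100 meaning total damage.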

[2] = test system: Amaranthus retoflexus (AMARE); assay: as above; conditions: Amaranthus retroflexus, 312 h, evaluated after 13 days (100=total damage; 0=no damage), read-out: Percentage damage AMARE; for pest or weed control at 1000 g/ha: pre-emergence, 1,000 g/ha
In short: as §1

[3] = test system: Echinochloa crus-galli (ECHCG); assay: as above; conditions: 312 h, evaluated after 13 days (100=total damage; 0=no damage), read-out: Percentage damage ECHCG; for pest or weed control at 1000 g/ha: pre-emergence, 1,000 g/ha
In short: as §1

[4] = test system: Ipomea hederaceae (IPOHE); assay: as above; conditions: Ipomoea hederacea, 312 h, evaluated after 13 days (100=total damage; 0=no damage), read-out: Percentage damage IPOHE; for pest or weed control at 1000 g/ha: pre-emergence, 1,000 g/ha
In short: as §1

Setaria faberi (SETFA) [5] = assay: as above; conditions: 312 h, evaluated after 13 days (100=total damage; 0=no damage), read-out: Percentage damage SETFA; for pest or weed control at 1000 g/ha: pre-emergence, 1,000 g/ha
In short: as §1

Solanum nigrum (SOLNI) [6] = assay: as above; conditions: 312 h, evaluated after 13 days (100=total damage; 0=no damage), read-out: Percentage damage SOLNI; for pest or weed control at 1000 g/ha: pre-emergence, 1,000 g/ha
In short: as §1

[7] = test system: Alopecurus myosuroides (ALOMY); assay: Post-emergence biological efficacy, glasshouse pot test; conditions: 312 h, evaluated after 13 days (100=total damage; 0=no damage), read-out: Percentage damage caused to weed species, ALOMY; for pest or weed control at 1000 g/ha: post-emergence, 1,000 g/ha
In short: (§2)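 Plants were sown in standard soil and grown 8 days in a glasshouse (24/16° C. day/night, 14 hours light, 65% humidity), then sprayed post-emergence at 1000 or 250 g/ha from acetone/water (50:50) with 0.5% Tween 20. Damage was scored visually after 13 days (0 = none, 100 = total).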

[8] = test system: Amaranthus retoflexus (AMARE); assay: as above; conditions: Amaranthus retroflexus, 312 h, evaluated after 13 days (100=total damage; 0=no damage), read-out: Percentage damage caused to weed species, AMARE; for pest or weed control at 1000 g/ha: post-emergence, 1,000 g/ha
In short: as §2

[9] = test system: Echinochloa crus-galli (ECHCG); assay: as above; conditions: 312 h, evaluated after 13 days (100=total damage; 0=no damage), read-out: Percentage damage caused to weed species, ECHCG; for pest or weed control at 1000 g/ha: post-emergence, 1,000 g/ha
In short: as §2

[10] = test system: Ipomea hederaceae (IPOHE); assay: as above; conditions: Ipomoea hederacea, 312 h, evaluated after 13 days (100=total damage; 0=no damage), read-out: Percentage damage caused to weed species, IPOHE; for pest or weed control at 1000 g/ha: post-emergence, 1,000 g/ha
In short: as §2

Setaria faberi (SETFA) [11] = assay: as above; conditions: 312 h, evaluated after 13 days (100=total damage; 0=no damage), read-out: Percentage damage caused to weed species, SETFA; for pest or weed control at 1000 g/ha: post-emergence, 1,000 g/ha
In short: as §2

Solanum nigrum (SOLNI) [12] = assay: as above; conditions: 312 h, evaluated after 13 days (100=total damage; 0=no damage), read-out: Percentage damage caused to weed species, SOLNI; for pest or weed control at 1000 g/ha: post-emergence, 1,000 g/ha
In short: as §2

| SMILES | pest or weed control at 1000 g/ha [1] [%] | pest or weed control at 1000 g/ha [2] [%] | pest or weed control at 1000 g/ha [3] [%] | pest or weed control at 1000 g/ha [4] [%] | pest or weed control at 1000 g/ha (Setaria faberi (SETFA) [5]) [%] | pest or weed control at 1000 g/ha (Solanum nigrum (SOLNI) [6]) [%] | pest or weed control at 1000 g/ha [7] [%] | pest or weed control at 1000 g/ha [8] [%] | pest or weed control at 1000 g/ha [9] [%] | pest or weed control at 1000 g/ha [10] [%] | pest or weed control at 1000 g/ha (Setaria faberi (SETFA) [11]) [%] | pest or weed control at 1000 g/ha (Solanum nigrum (SOLNI) [12]) [%] | further results |
| --- | --- | --- | --- | --- | --- | --- | --- | --- | --- | --- | --- | --- | --- |
| COC(=O)c1nc(C2CC2)nc(NCC2CCC=CO2)c1Cl (stereo not drawn) [Compound 4-56, 5-Chloro-2-cyclopropyl-4-[(3,4-dihydro-2H-pyran-2-yl)methylamino]-6-methoxy-carbonylpyrimidine] | 40 | 100 | 30 | 100 | 20 | 90 | 20 | 100 | 30 | 80 | 40 | 80 | – |
| COC(=O)c1nc(C2CC2)nc(NCC2CCN(OC(=O)C(C)(C)C)CC2)c1Cl [Compound 4-58] | 0 | 80 | 0 | 20 | 0 | 30 | 0 | 70 | 40 | 50 | 50 | 70 | – |
| COC(=O)c1nc(C2CC2)nc(NCC2(O)CCc3ccc(OC)cc32)c1Cl (stereo not drawn) [Compound 4-59, 5-Chloro-2-cyclopropyl-4-[(1-hydroxy-6-methoxyindan-1-yl)methylamino]-6-methoxycarbonyl-pyrimidine] | 20 | 80 | 40 | 80 | 10 | 80 | 50 | 100 | 60 | 100 | 80 | 100 | – |
| COC(=O)c1nc(C2CC2)nc(NCc2ccccc2)c1Cl [Compound 4-60, 5-chloro-2-cyclopropyl-6-methoxycarbonyl-4-phenylmethylaminopyrimidine] | 0 | 60 | 0 | 60 | 30 | 50 | 20 | 100 | 90 | 100 | 90 | 100 | – |
| COC(=O)c1nc(C2CC2)nc(NCc2cccc(Cl)c2)c1Cl [Compound 4-62] | 10 | 100 | 20 | 60 | 10 | 90 | 30 | 100 | 70 | 100 | 90 | 100 | – |
| COC(=O)c1nc(C2CC2)nc(NCc2ccc(Cl)cc2)c1Cl [Compound 4-63, 5-Chloro-4-(4-chlorophenylmethyl-amino)-2-cyclopropyl-6-methoxycarbonyl-pyrimidine] | 20 | 60 | 20 | 60 | 20 | 60 | 40 | 100 | 50 | 80 | 80 | 90 | – |
| COC(=O)c1nc(C2CC2)nc(NCc2cccc(F)c2)c1Cl [Compound 4-65, 5-Chloro-2-cyclopropyl-4-(3-fluorophenylmethyl-amino)-6-methoxycarbonyl-pyrimidine] | 20 | 80 | 60 | 70 | 40 | 80 | 20 | 100 | 80 | 100 | 100 | 100 | – |
| COC(=O)c1nc(C2CC2)nc(NCc2ccc(F)cc2)c1Cl [Compound 4-66, 5-Chloro-2-cyclopropyl-4-(4-fluorophenyl-methylamino)-6-methoxy-carbonylpyrimidine] | 40 | 90 | 50 | 90 | 80 | 90 | 20 | 100 | 70 | 100 | 90 | 100 | – |
| COC(=O)c1nc(C2CC2)nc(NCc2ccccc2Br)c1Cl [Compound 4-67, 4-(2-Bromophenyl-methylamino)-5-chloro-2-cyclopropyl-6-methoxycarbonyl-pyrimidine] | – | – | – | – | – | – | – | – | – | – | – | – | pest or weed control at 250 g/ha ([1]; pre-emergence, 250 g/ha): 0%; pest or weed control at 250 g/ha ([2]; pre-emergence, 250 g/ha): 40%; pest or weed control at 250 g/ha ([3]; pre-emergence, 250 g/ha): 0%; pest or weed control at 250 g/ha ([4]; pre-emergence, 250 g/ha): 0%; pest or weed control at 250 g/ha (Setaria faberi (SETFA) [5]; pre-emergence, 250 g/ha): 0%; pest or weed control at 250 g/ha (Solanum nigrum (SOLNI) [6]; pre-emergence, 250 g/ha): 20%; pest or weed control at 250 g/ha ([7]; post-emergence, 250 g/ha): 20%; pest or weed control at 250 g/ha ([8]; post-emergence, 250 g/ha): 90%; pest or weed control at 250 g/ha ([9]; post-emergence, 250 g/ha): 50%; pest or weed control at 250 g/ha ([10]; post-emergence, 250 g/ha): 80%; pest or weed control at 250 g/ha (Setaria faberi (SETFA) [11]; post-emergence, 250 g/ha): 70%; pest or weed control at 250 g/ha (Solanum nigrum (SOLNI) [12]; post-emergence, 250 g/ha): 90% |
| COC(=O)c1nc(C2CC2)nc(NCc2cccc(Br)c2)c1Cl [Compound 4-68, 4-(3-Bromophenyl-methylamino)5-chloro-2-cyclopropyl-6-methoxycarbonyl-pyrimidine] | 10 | 50 | 10 | 60 | 10 | 20 | 20 | 100 | 60 | 100 | 90 | 90 | – |
